Assay results reported in patent US12370214B2, “Combined pharmaceutical formulation comprising drug-containing liposome composition and platinum preparation” (FUJIFILM Corporation, priority 2018, dated 2025).

Legend:
[1] = tested on: A2780 cells; assay: Drug efficacy test with combined use of platinum preparation in tumor-bearing mouse model with subcutaneous transplantation of A2780 (carboplatin, Lipo, paclitaxel); format: in vivo, mice
Protocol: A platinum preparation (hereinafter, also referred to as carboplatin), the topotecan-containing liposome composition according to the embodiment of the present invention, and paclitaxel were used as test substances. Physiological saline (available from Otsuka Pharmaceutical Factory, Inc., hereinafter, also referred to as carboplatin solvent) was used for the dilution of carboplatin. A 10 mM histidine/9.4% sucrose solution (hereinafter, also referred to as Lipo solvent) was used for the dilution of Lipo. 12.5% CREMOPHOR (available from Sigma-Aldrich, LLC)/12.5% ethanol (available from Shonan Wako Junyaku K.K.)/75% physiological saline (available from Otsuka Pharmaceutical Factory, Inc.) was used for the dilution of paclitaxel.
5×10^6 A2780 cells, which is a human ovarian cancer cell line, were subcutaneously transplanted into the flank of female BALB/cAJcl-nu/nu mice to form subcutaneous tumors. From 7 days after transplantation, mice were drug treated with carboplatin alone, Lipo of the present invention alone, a combination of carboplatin and Lipo, and a combination of carboplatin and paclitaxel, and the effect of the drug treatment on the survival time of the mice was evaluated. In a case where a volume of tumor reached 2,000 mm^3 or in a case where significant deterioration of the condition was observed, the animals were euthanized and considered dead. […]

[2] = tested on: A2780 cells; assay: Drug efficacy test with combined use of platinum preparation in tumor-bearing mouse model with subcutaneous transplantation of A2780 (carboplatin, Lipo, topotecan); format: in vivo, mice; conditions: for Median survival time: from start of drug administration, carboplatin 80 mg/kg ip, Lipo 0.5 mg/kg tail vein once a week x 2, topotecan 0.5 mg/kg tail vein once a day x 5, carboplatin once in the topotecan combination; for Number of animal deaths or euthanasias due to deterioration of condition: of 8 animals in group, same doses and schedules as median survival
Description: A platinum preparation (hereinafter, also referred to as carboplatin), the topotecan-containing liposome composition according to the embodiment of the present invention, and topotecan were used as test substances. Physiological saline (available from Otsuka Pharmaceutical Factory, Inc., hereinafter, also referred to as carboplatin solvent) was used for the dilution of carboplatin and topotecan. A 5% Otsuka glucose solution (available from Otsuka Pharmaceutical Factory, Inc., hereinafter, also referred to as Lipo solvent) was used for the dilution of Lipo.
5×10^6 A2780 cells, which is a human ovarian cancer cell line, were subcutaneously transplanted into the flank of female BALB/cAJcl-nu/nu mice to form subcutaneous tumors. From 7 days after transplantation, mice were drug treated with carboplatin alone, Lipo of the present invention alone, topotecan alone, a combination of carboplatin and Lipo, and a combination of carboplatin and topotecan, and the effect of the drug treatment on the survival time of the mice was evaluated. In a case where a volume of tumor reached 2,000 mm^3 or in a case where significant deterioration of the condition was observed, the animals were euthanized and considered dead.
In the combination group of a carboplatin solvent and a Lipo solvent, the carboplatin solvent was administered by intraperitoneal administration, and the Lipo solvent was administered by tail vein administration once a week for 2 weeks. The carboplatin alone group was administered by intraperitoneal administration once a week for 2 weeks. The Lipo alone group was administered by tail vein administration once a week for 2 weeks. In the combination group of carboplatin and Lipo, carboplatin was administered by intraperitoneal administration once a week for 2 weeks, and Lipo was administered by tail vein administration once a week for 2 weeks. In the combination group of carboplatin and topotecan, carboplatin was administered as a single dose by intraperitoneal administration, and topotecan was administered by tail vein administration once a day for 5 days.
Groups 1 to 4 and 6 correspond to Comparative Examples, and Group 5 corresponds to Example. In Table 5, “Lipo” represents the topotecan-containing liposome composition according to the embodiment of the present invention, “Abdomen” represents intraperitoneal administration, “Tail” represents tail vein administration, “Once a week×2” represents once a week for 2 weeks, “Once a day×5” represents administration once a day for 5 days, and “Once” represents administration once during the test period.

SMILES | Median survival time ([1]; from start of drug administration, carboplatin 80 mg/kg ip, Lipo 0.5 mg/kg tail vein, paclitaxel 20 mg/kg tail vein, single agents once a week x 2, combinations once) [days] | Number of animal deaths or euthanasias due to deterioration of condition ([1]; of 8 animals in group, same doses and schedules as median survival) | Median survival time [2] [days] | Number of animal deaths or euthanasias due to deterioration of condition [2]
N.N.O=C([O-])C1(C(=O)[O-])CCC1.[Pt+2] [Carboplatin, carboplatin] | 10 | 1 | 9.1 | 0
CC[C@@]1(O)C(=O)OCc2c1cc1n(c2=O)Cc2cc3c(CN(C)C)c(O)ccc3nc2-1 [Topotecan, topotecan] |  |  | 12.9 | 0
